Measurements taken from patent publication US20160068527A1, “The Treatment of Inflammatory Disorders” (CRESSET BIOMOLECULAR DISCOVERY LTD., priority 2013, published 2016).

How the values were obtained:
human mast cells [1] = test: Inhibition of histamine release from human mast cells; format: cell-based; settings: IgE challenged human cord derived mast cells, 5 min incubation, FIG. 1
Protocol: Protocol: Human derived cord mast cells were cultured using the following method. Commercially available CD34^+ stem cells were cultured for […] in StemSpan (StemCell Technologies, Grenoble, France) serum-free medium supplemented with 100 ng/ml human SCF, 50 ng/ml IL-6 and 1 ng/ml IL-3, and 100 μg/ml penicillin/streptomycin (Peprotech, London, UK). After eight weeks, cells were cultured in StemSpan with 10% FCS. The cells were passaged into new medium every week. Cells were used for experiments between 11 and 18 weeks following confirmation by microscopic examination, c-kit and FcRε1 staining (by FACS), of mast cell morphology. For assessment of drug effects, Nalidixic Acid was incubated for 5 min with aliquots of 2×10^5 CDMCs (cord derived mast cells) cultured in 10% FCS medium. A commercially-available enzyme immunoassay was used to detect and quantify histamine released in the supernatant (SPI bio, Strasbourg, France). The assay was conducted following the manufacturer protocols. A standard curve ranging from 0.39-50 nM histamine was prepared using the reagent provided and the optical density was then read within 60 min in a microplate reader (at 405 nm). In some cases, the total cell content of histamine was established by freeze thawing of cells prior to challenge

human mast cells [2] = test: Inhibition of Prostaglandin D2 release from human mast cells; format: cell-based; settings: IgE challenged human cord derived mast cells, FIG. 2
Protocol: Human cord derived mast cells were cultured using the methodology described in Example 1. A commercially-available enzyme immunoassay (Cayman Chemical, Michigan, USA) was used to detect and quantify PGD2 released in the supernatant. The assay was conducted following the manufacturer protocols. A standard curve ranging from 78-10,000 pg/ml PGD2 was prepared using the reagent provided and the optical density was then read within 60 min in a microplate reader (at 405 nm).

[3] = tested on: ovalbumin induced murine model of asthma; test: Ovalbumin induced murine model of asthma, BALF eosinophils; format: in vivo, mouse; settings: female BALB/c mice, 0.3 mg/kg intranasal, OVA challenge
Protocol: The effects of locally administered Nalidixic acid were studied in a mouse model of asthma. Female BALB/c mice, 8 animals per group, were sensitised to ovalbumin (OVA, 10 mg) by intra-peritoneal injection on days 1 and 14 of the study. On days 20, 21, 22 and 23 animals either received a challenge dose of ovalbumin (50 μg) to the lung given by intranasal administration or 50 μl of phosphate buffered saline (PBS, non-challenged group). Animals challenged with OVA also received either PBS vehicle or Nalidixic acid (0.3 mg/kg of body weight) given by intranasal administration for inhalation into the lung. This was administered 30 minutes prior to and 6 hours post each ovalbumin challenge on days 21 to 23 and in addition on day 24, the day between the last challenge and the terminal day of the experiment. Forty-eight hours after the final OVA challenge, mice were anaesthetised with a combination of ketamine hydrochloride (Narketan, 2 mg/mouse) and xylazine hydrochloride (Rompun, 0.07 mg/mice) and sacrificed by carotid exsanguination.
Bronchoalveolar lavage fluid (BAL) was obtained as follows. The trachea was cannulated. Phosphate Buffered Saline (PBS) was used as the lavage fluid, 3 volumes (0.4 ml; 0.3 ml; 0.3 ml; total 1 mL) were gently instilled and withdrawn on 3 consecutive occasions using a 1 ml BD syringe and then placed in an Eppendorf tube (˜1 ml). […]

phosphatase PP2A = phosphatase PP2A (Homo sapiens, UniProt P67775); test: Inhibition of the phosphatase PP2A; format: biochemical; settings: statement in summary, no method or data
human mast cells [4] = test: Release of Annexin-A1 from human mast cells (ELISA); format: cell-based; settings: increasing concentrations of Nalidixic acid, conditioned medium, FIG. 3
Protocol: Human cord derived mast cells were cultured using the methodology described in Example 1. Anx-A1 protein levels in conditioned medium were determined by ELISA. Briefly, 96-well flat-bottomed ELISA plates (Greiner, Gloucestershire, UK) were coated with 1 μg anti-Anx-A1 mAb 1B in bicarbonate buffer (pH 9.6) and incubated overnight at 4° C. After washing in the bicarbonate buffer, potentially uncoated sites were blocked with 100 μL of PBS containing 1% BSA for 1h at room temperature. Sample aliquots (100 μL) or Anx-A1 standard solutions (prepared in 0.1% Tween-20 in PBS; concentration ranging between 10 and 0.001 μg/mL) were added for 1h at 37° C. After extensive washing in PBS/Tween-20, 100 μL of a polyclonal rabbit anti-human Anx-A1 serum (Zymed, Invitrogen, Paisley, UK; diluted 1:1000 in PBS/Tween-20) was added (1h at 37° C.) prior to incubation with donkey anti-rabbit 1 gG conjugated to alkaline phosphatase (1:1000; Sigma). The colour was developed by addition of 100 μL p-nitrophenyl phosphate (1 mg/mL in bicarbonate buffer, pH 9.6). Absorbance was read at 405 nm (with a 620-nm reference filter) in a microplate reader (Titertek™, Vienna, Austria). Anx-A1 levels in the study samples were read against the standard curve and expressed as ng/ml.

Sequence of phosphatase PP2A (P67775 whole entry): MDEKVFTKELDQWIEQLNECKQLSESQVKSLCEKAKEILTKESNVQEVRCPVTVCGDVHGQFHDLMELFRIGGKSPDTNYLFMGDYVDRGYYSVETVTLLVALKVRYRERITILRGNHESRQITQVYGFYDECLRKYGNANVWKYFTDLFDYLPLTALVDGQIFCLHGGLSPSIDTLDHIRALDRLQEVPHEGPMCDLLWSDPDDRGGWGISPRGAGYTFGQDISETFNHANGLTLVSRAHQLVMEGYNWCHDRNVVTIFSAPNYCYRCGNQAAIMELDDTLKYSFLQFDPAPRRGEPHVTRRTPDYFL

inhibition of the phosphatase PP2A (phosphatase PP2A): potent inhibitors
Structure (SMILES): CCn1cc(C(=O)O)c(=O)c2ccc(C)nc21 [Nalidixic acid]
inhibition of histamine release (human mast cells [1]): dose related inhibition | inhibition of PGD2 release (human mast cells [2]): dose related inhibition | decrease in total BALF eosinophil counts compared with challenged vehicle treated animals ([3]; p<0.05, FIG. 4): 47% | reduction of percentage of eosinophils of the total BALF cellular count versus vehicle treated group ([3]; p<0.05, FIG. 5): 44% | Annexin-A1 released from human mast cells (human mast cells [4]): increase
